From patent publication US20250049816A1, “COMPOSITIONS COMPRISING THYMOQUINONE AND VITAMIN D” (N.S. Oils Ltd., priority 2021, published 2025)
“Also recorded” adds a separate entry of the source.

What was measured:
Format in all cases: cell-based, murine
[1] = system: Mfn2; assay: Western blot, Mfn2 expression in cultured adipocytes; details: TQ 1 μM, vitamin D3 10 nM, alone or combined; 6 days; relative to β-actin; vs untreated control (C); FIG. 8
Description: (§1) 3T3-L1 murine fibroblasts were obtained from American Type Culture Collection (Rockville, MD, USA). After thawing, cells were resuspended in DMEM, supplemented with 10% heat-inactivated fetal bovine serum (FBS, Invitrogen, Carlsbad, CA, USA) and 1% antibiotic/antimycotic solution (Invitrogen). Culture medium was replaced every 3 days containing 0.25 μM dexamethasone, 10 μg/ml insulin and 0.5 mM 3-isobutyl-1-methylxanthine (Sigma-Aldrich, St. Louis, MO, USA) in DMEM with 10% FBS. Differentiating 3T3-L1 preadipocytes were treated with TQ or Vitamin D3 or combinations thereof for 6 days.
(§2) The cultured adipocytes were homogenized and lysed in RIPA lysis buffer containing protease and phosphatase inhibitors (Complete TM Mini and PhosSTOPTM, Roche Diagnostics, Indianapolis, IN). […] The blots were visualized using an Odyssey Infrared Imaging Scanner (Li-Cor Science Tec) and quantified by densitometric analysis after normalization with β-actin. […]
(§3) The aim of this study was to investigate the effect of a combination of vitamin D3 (10 nM) and TQ (1 μM) on the expression of the UCP1, PGC-1α and Mfn2 genes in cultured adipocytes. […] Following SDS-PAGE separation and western blotting, the three gene products were detected using the appropriate antibodies, and the level of each protein measured, all as described above in the general methods section.

[2] = system: differentiated adipocytes (3T3-L1 cells); assay: Oil red O staining, lipid droplet size in differentiated cultured adipocytes; details: 6 days, vs untreated control (C)
Description: as §1
The size of the lipid droplets in differentiated adipocytes (i.e., 3T3-L1 cells prepared as in the previous section) following the various treatments was measured using oil red O staining. Briefly, differentiated adipocytes were washed with phosphate buffered saline (PBS) and fixed in 3.7% formaldehyde for 10 min. Cells were stained with oil red O solution for 30 min at 25° C. Staining was visualized using bright-field microscopy. Lipid droplet size was then measured using Image Pro (advance Imaging Concept, Inc., Princeton, NJ).
The aim of this study was to investigate the effect of combinations of TQ and vitamin D3 on the accumulation of lipids in cultured adipocytes. For the purpose of this investigation, 3T3-L1 murine fibroblasts were grown and differentiated as described hereinabove. The differentiated cultures were then treated for six days with TO, vitamin D3 or combinations thereof. Following this treatment, the size of the accumulated lipid droplets within the cultured cells were assessed using the oil red O staining method described hereinabove.

[3] = system: TNF-α; assay: Western blot, TNF-α levels produced by cultured differentiated 3T3-L1 cells; details: 1 μM TQ alone or 10 nM Vitamin D3 alone, vs untreated control (C), FIG. 9
Description: as §1
as §2, with “IN). Protein samples were separated using 10% sodium dodecyl sulfate-polyacrylamide (SDS) gels and transferred to a nitrocellulose membrane (Bio-Rad, Hercules, CA, USA).” for “IN).”
The levels of TNF-α produced by cultured, differentiated 3T3-L1 cells were measured using specific anti-TNF-α antibodies in a western blot assay, as described hereinabove. […]

[4] = system: UCP1; assay: Western blot, UCP1 expression in cultured adipocytes; details: TQ 1 μM, vitamin D3 10 nM, alone or combined; 6 days; relative to β-actin; FIG. 6
Description: as §1, §2, §3

[5] = system: PGC-1α; assay: Western blot, PGC-1α expression in cultured adipocytes; details: TQ 1 μM, vitamin D3 10 nM, alone or combined; 6 days; relative to β-actin; FIG. 7
Description: as §1, §2, §3

## CC1=CC(=O)C(C(C)C)=CC1=O [TQ, thymoquinone]
[1]
  Mfn2 expression: statistically significant elevation of Mfn2 expression
[2]; TQ 1 μM, FIG. 1
  average lipid droplet size: statistically significant reduction in lipid droplet size
[2]; TQ 2 μM, FIG. 1
  average lipid droplet size: statistically significant reduction in lipid droplet size; also recorded: greater degree of size reduction than that caused by the 1 μM dose; also recorded: greatest effect
[2]; TQ 4 μM, FIG. 1
  average lipid droplet size: statistically significant reduction in lipid droplet size; also recorded: did not cause any further enhancement of this effect; also recorded: greatest effect
[3]
  decrease in TNF-α expression: approximately 50%
[4]
  UCP1 expression: statistically significant elevation of UCP1 expression
[5]
  PGC-1α expression: statistically significant elevation of PGC-1α expression

## C=C1CC[C@H](O)C/C1=C/C=C1\CCC[C@]2(C)[C@@H]([C@H](C)CCCC(C)C)CC[C@@H]12 [Vitamin D3, cholecalciferol, reference compound]
[1]
  Mfn2 expression: statistically significant elevation of Mfn2 expression
[2]; Vitamin D3 1 nM, FIG. 2
  average lipid droplet size: slight reduction in lipid droplet size, this reduction was not statistically significant
[2]; Vitamin D3 10 nm, FIG. 2
  average lipid droplet size: statistically significant reduction in lipid droplet size
[2]; Vitamin D3 100 nm, FIG. 2
  average lipid droplet size: statistically significant reduction in lipid droplet size
[3]
  decrease in TNF-α expression: approximately 50%
[4]
  UCP1 expression: statistically significant elevation of UCP1 expression
[5]
  PGC-1α expression: statistically significant elevation of PGC-1α expression
